ChEMBL document CHEMBL1156492, “(R)- and (S)-verapamil differentially modulate the multidrug-resistant protein MRP1” (J Biol Chem, 2007)
Activity calls are given as the source filed them. The calls are words filed in the database; no cut-off is given here.

Tests used:
Assay type in all cases: functional, cell-based
BHK-21 [1] = assay: Decrease in intracellular glutathione concentration in human MRP1 expressing hamster BHK21 cells; conditions: Mesocricetus auratus
BHK-21 [2] = assay: Cytotoxicity against human MRP1 expressing hamster BHK21 cells at 10 to 20 uM by MTT assay; conditions: Mesocricetus auratus
BHK-21 [3] = assay: Cytotoxicity against hamster BHK21 cells by MTT assay; conditions: Mesocricetus auratus
BHK-21 [4] = assay: Cytotoxicity against human MRP1 expressing hamster BHK21 cells after 72 hrs by MTT assay; conditions: Mesocricetus auratus, BHK-21, 72 h
BHK-21 [5] = assay: Cytotoxicity against hamster BHK21 cells after 72 hrs by MTT assay; conditions: Mesocricetus auratus, BHK-21, 72 h
BHK-21 [6] = assay: Decrease in intracellular glutathione concentration in human MRP1 expressing hamster BHK21 cells at 5 uM; conditions: Mesocricetus auratus

## COc1ccc(CCN(C)CCC[C@](C#N)(c2ccc(OC)c(OC)c2)C(C)C)cc1OC
BHK-21 [1]
  Activity: inactive

## COc1ccc(CCN(C)CCCC(C#N)(c2ccc(OC)c(OC)c2)C(C)C)cc1OC (racemic)
BHK-21 [2]
  Activity: Active
BHK-21 [3]
  Activity: inactive

## CC[C@]1(O)C[C@H]2CN(CCc3c([nH]c4ccccc34)[C@@](C(=O)OC)(c3cc4c(cc3OC)N(C=O)[C@H]3[C@@](O)(C(=O)OC)[C@H](OC(C)=O)[C@]5(CC)C=CCN6CC[C@]43[C@@H]65)C2)C1 [VINCRISTINE]
BHK-21 [4]
  IC50: 9.42 nM
BHK-21 [5]
  IC50: 1.51 nM

## COc1ccc(CCN(C)CCC[C@@](C#N)(c2ccc(OC)c(OC)c2)C(C)C)cc1OC
BHK-21 [1]
  Activity: Active
BHK-21 [6]
  Activity: Active
